“Also recorded” adds a separate entry of the source.
How the values were obtained:
NCI-N87 = assay: In vitro cytotoxicity MTT assay; assay type: cell-based; conditions: Homo sapiens, 72 h, IC50 ± SD
Outline: (§1)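 Viability is determined by MTT after 72 h of treatment, using 2.4×10^4 seeded cells for SW48, NCI-N87 and MDA-MB-453 and 6×10^3 for MDA-MB-231.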

SK-BR-3 = assay: In vitro cytotoxicity MTT assay; assay type: cell-based; conditions: Homo sapiens, 72 h, IC50 ± SD
Outline: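 Plated 96-well (MDA-MB-231 6×10^3; others 2.4×10^4); treated 72 h; MTT.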

M10 = assay: In vitro cytotoxicity MTT assay; assay type: cell-based, human; conditions: Homo sapiens, M10, 72 h, IC50 ± SD
Outline: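 Seeding: MDA-MB-231 6×10^3; MDA-MB-453, NCI-N87, SW48 2.4×10^4 each, 96-well. 72 h, MTT viability read-out.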

MDA-MB-231 = assay: In vitro cytotoxicity MTT assay; assay type: cell-based, human; conditions: Homo sapiens, MDA-MB-231, 72 h, IC50 ± SD
Outline: as §1

MDA-MB-453 = assay: In vitro cytotoxicity MTT assay; assay type: cell-based, human; conditions: Homo sapiens, MDA-MB-453, 72 h, IC50 ± SD
Outline: as §1

SW48 = assay: In vitro cytotoxicity MTT assay; assay type: cell-based, human; conditions: Homo sapiens, SW48, 72 h, IC50 ± SD
Outline: as §1

HDAC1 [1] = molecular target: T1, HDAC1 (Homo sapiens (Human), UniProt Q13547); assay: HDACs 1, 2, and 3 enzymatic inhibition (fluorogenic kit, 1 h); assay type: biochemical; conditions: 37° C.
Procedure: (§2) HDACs assay was performed according to standard Protocols (Fluorgenic HDACs 1, 2, and 3 assay kit, BPS Bioscience™). […] After 1 h, assay developer was added to the samples and the absorbance was read at fluorogenic wavelength. The relative inhibition to HDACs 1, 2, and 3 activities in each sample was determined.

HDAC2 = HDAC2 (Homo sapiens (Human), UniProt Q92769); assay: as above; assay type: biochemical; conditions: 37° C.
Procedure: as §2

HDAC3 = HDAC3 (Homo sapiens (Human), UniProt O15379); assay: as above; assay type: biochemical; conditions: 37° C.
Procedure: as §2

M10 cells [2] = assay: Cell cycle arrest by PI flow cytometry; assay type: cell-based, human; conditions: M10, 12.5 μM, 72 h
Procedure: (§3) A PI/RNase staining assay (BD Bioscience™) was performed to reveal the presence of cell cycle arrest and apoptotic cells after treatment with GNTbm compounds, Chidamide and Entinostat. […] After treatment cells were harvested, fixed with 80% ethanol for 24 h, washed with 1×PBS and stained with PI/RNase for 15 min at room temperature. The cells were then analyzed using Flow Cytometer within 1 h.

MDA-MB-231 cells [3] = assay: Cell cycle arrest by PI flow cytometry; assay type: cell-based, human; conditions: MDA-MB-231, 3.125 μM, 72 h
Procedure: as §3

SW48 cells [4] = assay: Cell cycle arrest by PI flow cytometry; assay type: cell-based, human; conditions: SW48, 3.125 μM, 72 h
Procedure: as §3

M10 cells [5] = assay: Cell apoptosis (sub-G1) by PI flow cytometry; assay type: cell-based, human; conditions: M10, 12.5 μM, 72 h
Procedure: as §3

MDA-MB-231 cells [6] = assay: Cell apoptosis (sub-G1) by PI flow cytometry; assay type: cell-based, human; conditions: MDA-MB-231, 6.25 μM, 72 h
Procedure: as §3

SW48 cells [7] = assay: Cell apoptosis (sub-G1) by PI flow cytometry; assay type: cell-based, human; conditions: SW48, 6.25 μM, 72 h
Procedure: as §3

M10 cells [8] = assay: Cell proliferation and morphology by phase-contrast light microscopy; assay type: cell-based, human; conditions: M10, 12.5 μM
Description: (§4) (FIG. 3A) MDA-MB-231 cells, (FIG. 3B) SW48 cells, (FIG. 3C) M10 cells.

MDA-MB-231 cells [9] = assay: as above; assay type: cell-based, human; conditions: MDA-MB-231, 12.5 μM, 72 h
Description: as §4

SW48 cells [10] = assay: as above; assay type: cell-based, human; conditions: SW48, 3.125 μM, 72 h
Description: as §4

HDAC1 [11] = molecular target: T1, HDAC1; assay: HDACs 1-11 enzymatic inhibition by BPS Bioscience
Procedure: HDAC assay was performed according to standard Protocols (Fluorgenic HDACs 1-11 assay kit, BPS Bioscience™). […] After 0.5 h, assay developer was added to the samples and the absorbance was read at fluorogenic wavelength. The relative inhibition to HDACs 1, 2, 3, 4, 5, 6, 7, 8, 9, and 11 activities was determined in each sample. […] All of the compounds were dissolved in DMSO. The serial dilution of the compounds was first performed in 100% DMSO with the highest concentration at 1 mM. Each intermediate compound dilution (in 100% DMSO) would then get directly diluted 10× fold into assay buffer for an intermediate dilution of 10% DMSO in HDAC assay buffer and 5 μl of the dilution was added to a 50 μl reaction so that the final concentration of DMSO is 1% in all of the reactions. […] Fluorescence intensity was measured at an excitation of 360 nm and an emission of 460 nm using a Tecan Infinite M1000 microplate reader. […] The fluorescent intensity data were analyzed using the computer software, Graphpad Prism. […] The percent activity in the presence of each compound was calculated according to the following equation: % activity=(F−Fb)/(Ft−Fb), where F=the fluorescent intensity in the presence of the compound. […] The IC50 value was determined by the concentration causing a half-maximal percent activity.

HDAC4 = HDAC4 (Homo sapiens (Human), UniProt P56524); assay: HDACs 1-11 enzymatic inhibition by BPS Bioscience
Procedure: (§5) HDAC assay was performed according to standard Protocols (Fluorgenic HDACs 1-11 assay kit, BPS Bioscience™). […] After 0.5 h, assay developer was added to the samples and the absorbance was read at fluorogenic wavelength. The relative inhibition to HDACs 1, 2, 3, 4, 5, 6, 7, 8, 9, and 11 activities was determined in each sample. […] All of the compounds were dissolved in DMSO. The serial dilution of the compounds was first performed in 100% DMSO with the highest concentration at 1 mM. Each intermediate compound dilution (in 100% DMSO) would then get directly diluted 10× fold into assay buffer for an intermediate dilution of 10% DMSO in HDAC assay buffer and 5 μl of the dilution was added to a 50 μl reaction so that the final concentration of DMSO is 1% in all of the reactions. The enzymatic reactions for the HDAC enzymes were conducted in duplicate at 37° C. for 30 minutes in a 50 μl mixture containing HDAC assay buffer, 5 μg BSA, an HDAC substrate, a HDAC enzyme and a test compound. After enzymatic reactions, 50 μl of 2×HDAC Developer was added to each well for the HDAC enzymes and the plate was incubated at room temperature for an additional 15 minutes. Fluorescence intensity was measured at an excitation of 360 nm and an emission of 460 nm using a Tecan Infinite M1000 microplate reader. HDAC activity assays were performed in duplicate at each concentration. The fluorescent intensity data were analyzed using the computer software, Graphpad Prism. In the absence of the compound, the fluorescent intensity (Ft) in each data set was defined as 100% activity. In the absence of HDAC, the fluorescent intensity (Fb) in each data set was defined as 0% activity. The percent activity in the presence of each compound was calculated according to the following equation: % activity=(F−Fb)/(Ft−Fb), where F=the fluorescent intensity in the presence of the compound. […] The IC50 value was determined by the concentration causing a half-maximal percent activity.

HDAC7 = HDAC7 (Homo sapiens (Human), UniProt Q8WUI4); assay: HDACs 1-11 enzymatic inhibition by BPS Bioscience
Procedure: as §5

HDAC8 = HDAC8 (Homo sapiens (Human), UniProt Q9BY41); assay: HDACs 1-11 enzymatic inhibition by BPS Bioscience
Procedure: as §5

HDAC9 = HDAC9 (Homo sapiens (Human), UniProt Q9UKV0); assay: HDACs 1-11 enzymatic inhibition by BPS Bioscience
Chain of HDAC9 (Q9UKV0 whole entry): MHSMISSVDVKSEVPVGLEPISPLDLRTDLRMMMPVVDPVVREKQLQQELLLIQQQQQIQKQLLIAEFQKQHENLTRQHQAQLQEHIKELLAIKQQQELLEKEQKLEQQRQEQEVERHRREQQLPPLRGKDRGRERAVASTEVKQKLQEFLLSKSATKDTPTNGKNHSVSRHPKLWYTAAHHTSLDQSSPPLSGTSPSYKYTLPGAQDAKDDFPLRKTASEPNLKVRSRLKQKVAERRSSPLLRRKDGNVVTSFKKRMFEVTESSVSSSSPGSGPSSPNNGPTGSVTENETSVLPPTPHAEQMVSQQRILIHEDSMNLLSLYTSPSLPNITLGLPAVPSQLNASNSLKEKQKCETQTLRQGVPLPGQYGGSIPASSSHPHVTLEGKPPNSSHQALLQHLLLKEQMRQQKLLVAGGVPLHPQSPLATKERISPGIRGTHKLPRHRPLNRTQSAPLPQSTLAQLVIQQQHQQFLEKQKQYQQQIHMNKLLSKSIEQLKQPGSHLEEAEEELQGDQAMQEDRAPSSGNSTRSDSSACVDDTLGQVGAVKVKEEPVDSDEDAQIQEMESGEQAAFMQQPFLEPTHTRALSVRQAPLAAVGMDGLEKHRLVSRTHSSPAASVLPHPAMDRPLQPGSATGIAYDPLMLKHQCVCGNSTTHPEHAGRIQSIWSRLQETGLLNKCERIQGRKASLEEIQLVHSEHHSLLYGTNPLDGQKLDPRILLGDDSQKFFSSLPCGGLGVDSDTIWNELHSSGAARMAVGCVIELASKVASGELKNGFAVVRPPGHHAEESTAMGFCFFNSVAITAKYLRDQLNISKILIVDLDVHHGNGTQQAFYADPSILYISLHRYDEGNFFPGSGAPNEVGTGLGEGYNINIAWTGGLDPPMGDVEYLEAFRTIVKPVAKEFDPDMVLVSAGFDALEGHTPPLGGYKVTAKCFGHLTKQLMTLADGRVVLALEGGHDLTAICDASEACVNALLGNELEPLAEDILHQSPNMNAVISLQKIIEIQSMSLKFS
Procedure: as §5

Chain of HDAC4 (P56524 whole entry): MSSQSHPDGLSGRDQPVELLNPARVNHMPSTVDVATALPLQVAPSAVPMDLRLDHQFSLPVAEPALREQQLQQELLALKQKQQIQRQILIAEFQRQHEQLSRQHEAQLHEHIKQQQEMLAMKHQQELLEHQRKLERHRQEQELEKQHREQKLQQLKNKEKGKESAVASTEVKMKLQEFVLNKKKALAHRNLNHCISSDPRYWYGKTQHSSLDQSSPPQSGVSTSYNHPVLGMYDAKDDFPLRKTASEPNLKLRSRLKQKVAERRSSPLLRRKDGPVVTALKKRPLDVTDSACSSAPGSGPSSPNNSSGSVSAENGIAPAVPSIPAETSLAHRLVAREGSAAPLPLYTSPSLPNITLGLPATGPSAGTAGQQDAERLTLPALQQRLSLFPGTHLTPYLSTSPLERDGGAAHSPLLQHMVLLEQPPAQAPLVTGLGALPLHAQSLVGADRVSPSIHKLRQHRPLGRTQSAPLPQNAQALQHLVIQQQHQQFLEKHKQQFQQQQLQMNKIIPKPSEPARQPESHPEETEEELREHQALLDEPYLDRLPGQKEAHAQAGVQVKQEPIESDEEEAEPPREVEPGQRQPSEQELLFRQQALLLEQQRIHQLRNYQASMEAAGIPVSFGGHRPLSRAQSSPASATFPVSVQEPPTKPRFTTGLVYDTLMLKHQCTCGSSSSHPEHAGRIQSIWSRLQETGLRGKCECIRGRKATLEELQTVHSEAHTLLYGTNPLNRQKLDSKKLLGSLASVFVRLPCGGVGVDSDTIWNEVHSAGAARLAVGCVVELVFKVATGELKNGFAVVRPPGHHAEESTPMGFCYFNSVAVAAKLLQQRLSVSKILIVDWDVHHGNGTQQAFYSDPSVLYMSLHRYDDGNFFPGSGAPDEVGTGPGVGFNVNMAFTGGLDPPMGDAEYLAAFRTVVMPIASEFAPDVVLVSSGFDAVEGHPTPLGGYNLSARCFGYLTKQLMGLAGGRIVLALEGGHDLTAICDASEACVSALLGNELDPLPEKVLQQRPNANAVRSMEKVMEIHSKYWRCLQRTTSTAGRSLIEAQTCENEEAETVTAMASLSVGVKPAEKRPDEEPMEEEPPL
Chain of HDAC8 (Q9BY41 whole entry): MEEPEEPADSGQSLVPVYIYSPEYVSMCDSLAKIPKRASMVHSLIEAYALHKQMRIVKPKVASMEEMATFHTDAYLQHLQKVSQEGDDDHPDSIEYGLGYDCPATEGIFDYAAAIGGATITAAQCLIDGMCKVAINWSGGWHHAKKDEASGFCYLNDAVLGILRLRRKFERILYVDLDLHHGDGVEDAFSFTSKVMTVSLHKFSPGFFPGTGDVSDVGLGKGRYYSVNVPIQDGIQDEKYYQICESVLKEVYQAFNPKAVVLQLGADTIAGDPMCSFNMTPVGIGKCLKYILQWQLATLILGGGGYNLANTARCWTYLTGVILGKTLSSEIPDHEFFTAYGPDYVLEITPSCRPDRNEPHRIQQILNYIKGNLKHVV
Chain of HDAC7 (Q8WUI4 whole entry): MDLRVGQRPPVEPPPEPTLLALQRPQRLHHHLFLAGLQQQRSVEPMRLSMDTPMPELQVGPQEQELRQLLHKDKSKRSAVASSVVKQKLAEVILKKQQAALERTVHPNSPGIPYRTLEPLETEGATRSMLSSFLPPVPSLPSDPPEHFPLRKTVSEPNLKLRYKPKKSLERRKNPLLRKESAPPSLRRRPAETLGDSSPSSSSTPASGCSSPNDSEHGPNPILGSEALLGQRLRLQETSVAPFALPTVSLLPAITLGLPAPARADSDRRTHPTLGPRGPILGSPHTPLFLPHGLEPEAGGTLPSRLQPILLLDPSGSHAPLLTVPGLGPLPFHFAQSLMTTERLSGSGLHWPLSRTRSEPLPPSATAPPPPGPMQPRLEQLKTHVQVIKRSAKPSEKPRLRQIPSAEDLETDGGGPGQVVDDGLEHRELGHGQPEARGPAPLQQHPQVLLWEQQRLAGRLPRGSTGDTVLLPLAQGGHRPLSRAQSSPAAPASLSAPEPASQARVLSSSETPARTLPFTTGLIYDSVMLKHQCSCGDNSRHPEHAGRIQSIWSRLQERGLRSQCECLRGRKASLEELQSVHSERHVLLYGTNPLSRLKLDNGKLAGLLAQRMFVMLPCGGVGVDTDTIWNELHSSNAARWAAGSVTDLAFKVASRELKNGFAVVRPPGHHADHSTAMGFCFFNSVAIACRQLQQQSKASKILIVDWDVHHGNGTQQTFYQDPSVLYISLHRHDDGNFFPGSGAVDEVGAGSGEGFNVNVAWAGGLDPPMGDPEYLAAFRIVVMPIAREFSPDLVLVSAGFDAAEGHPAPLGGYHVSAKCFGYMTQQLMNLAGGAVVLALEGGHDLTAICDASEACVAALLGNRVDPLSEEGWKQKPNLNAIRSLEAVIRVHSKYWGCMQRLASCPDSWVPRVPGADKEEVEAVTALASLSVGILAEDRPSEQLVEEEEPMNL
T1 sequence (Q13547 whole entry): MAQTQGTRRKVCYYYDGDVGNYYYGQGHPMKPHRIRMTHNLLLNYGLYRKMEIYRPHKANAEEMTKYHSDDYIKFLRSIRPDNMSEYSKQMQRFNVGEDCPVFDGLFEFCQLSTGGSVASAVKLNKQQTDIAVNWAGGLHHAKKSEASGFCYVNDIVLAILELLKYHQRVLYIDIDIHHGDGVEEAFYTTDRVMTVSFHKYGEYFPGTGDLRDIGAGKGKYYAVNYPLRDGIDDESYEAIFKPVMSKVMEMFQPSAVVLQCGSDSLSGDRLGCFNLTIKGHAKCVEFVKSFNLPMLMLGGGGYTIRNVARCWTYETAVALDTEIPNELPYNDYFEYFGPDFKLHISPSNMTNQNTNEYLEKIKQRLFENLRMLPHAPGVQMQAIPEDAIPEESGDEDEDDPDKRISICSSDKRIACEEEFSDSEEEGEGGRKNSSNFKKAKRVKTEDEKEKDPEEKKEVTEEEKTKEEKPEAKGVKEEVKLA
Chain of HDAC3 (O15379 whole entry): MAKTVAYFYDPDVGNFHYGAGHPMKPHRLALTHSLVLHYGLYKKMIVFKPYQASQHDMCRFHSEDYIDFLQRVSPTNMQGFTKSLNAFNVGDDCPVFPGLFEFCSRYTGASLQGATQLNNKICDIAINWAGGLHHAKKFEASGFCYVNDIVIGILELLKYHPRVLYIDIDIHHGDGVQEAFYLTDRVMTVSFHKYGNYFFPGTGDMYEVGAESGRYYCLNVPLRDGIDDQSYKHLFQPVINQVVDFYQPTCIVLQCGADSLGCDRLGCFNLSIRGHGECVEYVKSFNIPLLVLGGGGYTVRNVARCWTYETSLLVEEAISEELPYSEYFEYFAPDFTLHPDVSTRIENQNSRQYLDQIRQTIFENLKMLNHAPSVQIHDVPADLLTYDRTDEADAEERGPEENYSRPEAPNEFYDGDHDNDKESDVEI
Chain of HDAC3 (Q9Y618 395-489 partner): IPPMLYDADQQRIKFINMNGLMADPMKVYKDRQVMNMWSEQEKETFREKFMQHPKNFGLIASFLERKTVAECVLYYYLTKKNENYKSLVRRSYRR
Chain of HDAC2 (Q92769 whole entry): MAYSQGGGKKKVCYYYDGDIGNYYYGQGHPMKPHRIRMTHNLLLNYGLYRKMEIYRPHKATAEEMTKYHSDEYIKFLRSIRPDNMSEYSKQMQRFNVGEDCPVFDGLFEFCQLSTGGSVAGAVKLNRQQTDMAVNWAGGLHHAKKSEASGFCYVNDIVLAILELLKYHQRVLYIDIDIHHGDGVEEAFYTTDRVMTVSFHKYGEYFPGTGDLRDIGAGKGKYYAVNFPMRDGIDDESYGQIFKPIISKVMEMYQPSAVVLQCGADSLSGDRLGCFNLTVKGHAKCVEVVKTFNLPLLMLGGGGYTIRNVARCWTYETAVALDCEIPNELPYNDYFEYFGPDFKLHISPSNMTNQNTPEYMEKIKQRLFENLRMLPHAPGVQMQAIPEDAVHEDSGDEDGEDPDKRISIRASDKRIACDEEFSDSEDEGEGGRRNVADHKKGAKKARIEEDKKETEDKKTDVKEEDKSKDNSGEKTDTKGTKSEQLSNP

Cc1ccc(/C=C/CC(=O)Nc2ccc(C(=O)Nc3ccc(F)cc3N)nc2)cn1 [GNTbm-02, 5-((E)-4-(6-methylpyridin-3-yl)but-3-enamido)-N-(2-amino-4-fluorophenyl)pyridine-2-carboxamide]
IC50 (NCI-N87): 4.01 ± 0.49 µM
IC50 (SK-BR-3): 2 ± 0.015 µM
IC50 (M10): 4.31 ± 0.16 µM
IC50 (MDA-MB-231): 13.5 ± 1.78 µM
IC50 (MDA-MB-453): 1.69 ± 0.008 µM
IC50 (SW48): 2.51 ± 0.11 µM
IC50 (HDAC1 [1]): 0.52 ± 0.02 µM
IC50 (HDAC2): 0.55 ± 0.06 µM
IC50 (HDAC3): 0.67 ± 0.005 µM
Cell cycle arrest (M10 cells [2]): significantly induced cell cycle arrest of M10 cells in the G2/M phase
Cells in G2/M phase (M10 cells [2]): 16.2%
Cell cycle arrest (MDA-MB-231 cells [3]): significantly induced cell cycle arrest in G0/G1 phase
Cell cycle arrest (SW48 cells [4]): significantly induced cell cycle arrest in G0/G1 phase
Cells in G0/G1 phase (SW48 cells [4]): 76.9%
Induction of apoptosis (sub-G1 phase) (M10 cells [5]): significantly induced apoptosis in M10 cells
Induction of apoptosis (sub-G1 phase) (MDA-MB-231 cells [6]): significantly induced apoptosis
Induction of apoptosis (sub-G1 phase) (SW48 cells [7]): significantly induced apoptosis
Inhibition of cell proliferation (M10 cells [8]): significantly inhibited cell proliferation
Inhibition of cell proliferation (MDA-MB-231 cells [9]): significantly inhibiting cell proliferation
Inhibition of cell proliferation (SW48 cells [10]): inhibitory effect was more obvious for SW48 cells
IC50 (HDAC1 [11]): 0.39 µM
IC50 (HDAC4): > 10 µM
HDAC4 Inhibition at 10 μM (HDAC4; 10 μM): not inhibited; also recorded: No Inhibition at 10 μM
IC50 (HDAC7): > 10 µM
HDAC7 Inhibition at 10 μM (HDAC7; 10 μM): not inhibited; also recorded: No Inhibition at 10 μM
IC50 (HDAC8): > 10 µM
HDAC8 Inhibition at 10 μM (HDAC8; 10 μM): not inhibited; also recorded: No Inhibition at 10 μM
IC50 (HDAC9): > 10 µM
HDAC9 Inhibition at 10 μM (HDAC9; 10 μM): not inhibited; also recorded: No Inhibition at 10 μM

Reference: patent publication US11672788B2, “Histone deacetylase inhibitors for immunomodulation in tumor microenvironment” (GREAT NOVEL THERAPEUTICS BIOTECH & MEDICALS CORPORATION, priority 2020, dated 2023)
